# In patent US11925653B2, “Combination therapy effective against microorganisms, including drug resistant microorganisms” (Fleurir ABX LLC, priority 2021, dated 2024):
# Marks after values point to notes of the source that are not given here.
# What was measured:
# [1] = test system: E. faecalis; conditions: cited from earlier work
# [2] = test system: S. saprophyticus; assay: MIC and synergy checkerboard assay, broth microdilution (uUTI species); format: cell-based, Staphylococcus saprophyticus
# Method: Minimum inhibitory concentration (MIC) assays were performed in a manner as described for the CLSI Agar dilution or broth microdilution assay guideline (see, Clinical Laboratory Standards Institute, 2009, Methods for Dilution Antimicrobial Susceptibility Tests for Bacteria That Grow Aerobically; Approved Standard, Eighth Edition, M07-A8, Vol. 29, No. 2). For example, known antibiotics or the compositions described herein were dissolved, serially diluted, and then added to tempered molten Mueller-Hinton Agar before pouring of plates; or were dissolved, and then serially diluted in 100 μL cation-adjusted Mueller-Hinton broth across the assay plate in the classical 2-fold geometric format. D-glucose-6-phosphate was included as a medium supplement in both agar, and broth at a concentration of 50 mg/L. Antibiotic concentrations for agar assay were at the final concentration. Antibiotic concentrations for broth microdilution in each well at this point were double what the final assay concentration would be. Bacterial inocula were prepared by swabbing several colonies from a fresh agar plate, and re-suspending the bacteria to a density that was the 0.5 McFarland turbidity standard, considered close or equivalent to 1×10^8 CFU/mL. For agar dilution, a steers replicator was utilized to deliver 1×10^4 CFU/spot. For broth microdilution, the bacterial inocula were diluted in the cation-adjusted Mueller-Hinton broth to 1×10^6 CFU/mL, and 100 μL was overlayered onto the wells containing a diluted antibiotic or a composition described. Following incubation as per the guideline, results were recorded as growth or no growth, and the lowest concentration of the antibiotic or the composition described where no growth was observed was declared the MIC. […]
# [3] = test system: susceptible bacteria; conditions: susceptible strains of Escherichia coli and Enterococcus faecalis; cited from earlier work
# [4] = test system: K. pneumonia; assay: MIC and synergy checkerboard assay, agar dilution; format: cell-based
# Method: (§1) The described novel combination was tested against both reference, and clinically resistant strains of S. aureus, E, coli, K. pneumoniae, and P. aeruginosa. Reference and clinical isolates were obtained from the American Type Culture Collection (ATCC, Manasas, VA.) and International Health Management Associates, Inc. (Schaumberg, IL). Bacteria were cultured in trypticase soy broth, concentrated 10-fold by centrifugation, and cryopreserved in the same medium containing 20% glycerol by holding at −80° C. Every two weeks a small amount of frozen culture was removed aseptically, and streaked on fresh trypticase soy agar plates to act as a working inoculum. Following overnight growth at about 37° C., the plates were wrapped in parafilm, and held at about 4° C. Bacteria (4-5 colonies) were then aseptically transferred into broth growth medium for assays as needed.
# (§2) Minimum inhibitory concentration (MIC) assays were performed in a manner as described for the CLSI Agar dilution or broth microdilution assay guideline (see, Clinical Laboratory Standards Institute, 2009, Methods for Dilution Antimicrobial Susceptibility Tests for Bacteria That Grow Aerobically; Approved Standard, Eighth Edition, M07-A8, Vol. 29, No. 2). For example, known antibiotics or the compositions described herein were dissolved, serially diluted, and then added to tempered molten Mueller-Hinton Agar before pouring of plates; or were dissolved, and then serially diluted in 100 μL cation-adjusted Mueller-Hinton broth across the assay plate in the classical 2-fold geometric format. D-glucose-6-phosphate was included as a medium supplement in both agar, and broth at a concentration of 50 mg/L. Antibiotic concentrations for agar assay were at the final concentration. Antibiotic concentrations for broth microdilution in each well at this point were double what the final assay concentration would be. Bacterial inocula were prepared by swabbing several colonies from a fresh agar plate, and re-suspending the bacteria to a density that was the 0.5 McFarland turbidity standard, considered close or equivalent to 1×10^8 CFU/mL. For agar dilution, a steers replicator was utilized to deliver 1×10^4 CFU/spot. For broth microdilution, the bacterial inocula were diluted in the cation-adjusted Mueller-Hinton broth to 1×10^6 CFU/mL, and 100 μL was overlayered onto the wells containing a diluted antibiotic or a composition described. Following incubation as per the guideline, results were recorded as growth or no growth, and the lowest concentration of the antibiotic or the composition described where no growth was observed was declared the MIC.
# (§3) To assay for synergy of antibacterial combinations, a recognized synergy checkerboard assay, adapted from the CLSI guideline microdilution assay, was utilized (see Eliopoulos, G. M., and Moellering, R. C, Jr., 1996. Antimicrobial Combinations, pg. 330-396. In: Lorian, V. (Ed.), Antibiotics in Laboratory Medicine, 4th Ed., Williams & Wilkins; Baltimore, MD). In the case of the agar dilution method, each antibiotic alone, or in combination was added to agar prior to plate pouring. For broth microdilution, the first compound (or antibiotic or agent) was diluted in cation-adjusted Mueller-Hinton broth across the plate along the horizontal axis with each well in a row containing 50 μL of an identical concentration of compound (or antibiotic). Along the vertical axis a dilution series of the second compound (or antibiotic) was dispensed. At this point the drug concentrations are four-fold of the final desired working concentration. […] Following incubation, wells with no growth are noted. […] FIC=(MIC-A combination/MIC-A alone)+(MIC-B combination/MIC-B alone).
# (§4) In the above, FIC: Synergy=FIC<0.5; Additive=FIC>0.5-1; Indifferent=FIC>1-2; Antagonism=FIC>2-4.
# [5] = test system: P. aeruginosa; assay: MIC and synergy checkerboard assay, agar dilution; format: cell-based
# Method: as §1, §2, §3, §4
# [6] = test system: Escherichia coli; assay: MIC and synergy checkerboard assay, agar dilution; format: cell-based
# Method: as §1, §2, §3, §4
# [7] = test system: N. gonorrhoeae; assay: MIC and synergy checkerboard assay, agar dilution on GC agar; format: cell-based
# Method: as §2, §3, §4
# Synergy is also identified in TABLE 9 (utilizing the agar checkerboard assay) against N. gonorrhoeae. In these analyses, the agar dilution was performed utilizing GC agar supplemented with Isovitalex, and 50 mg/L of D-glucose-6-phosphate. […] MIC comparator data was performed using the following known antibiotics: Ceftriaxone, Azithromycin, Cefixime, Ciprofloxacin, Tetracycline, Pristinamycin, Solithromycin, and Delafloxacin. Pristinamycin was purified from capsules obtained in France; Solithromycin, and Delafloxacin were synthesized internally for comparison.
# [8] = test system: P. mirabilis; assay: MIC and synergy checkerboard assay, broth microdilution (uUTI species); format: cell-based, Proteus mirabilis
# Method: as §2
# To assay for synergy of antibacterial combinations, a recognized synergy checkerboard assay, adapted from the CLSI guideline microdilution assay, was utilized (see Eliopoulos, G. M., and Moellering, R. C, Jr., 1996. Antimicrobial Combinations, pg. 330-396. In: Lorian, V. (Ed.), Antibiotics in Laboratory Medicine, 4th Ed., Williams & Wilkins; Baltimore, MD). In the case of the agar dilution method, each antibiotic alone, or in combination was added to agar prior to plate pouring. For broth microdilution, the first compound (or antibiotic or agent) was diluted in cation-adjusted Mueller-Hinton broth across the plate along the horizontal axis with each well in a row containing 50 μL of an identical concentration of compound (or antibiotic). Along the vertical axis a dilution series of the second compound (or antibiotic) was dispensed. At this point the drug concentrations are four-fold of the final desired working concentration. […] Following incubation, wells with no growth are noted. […]
structure (smiles),measurement,setting,value
"C[C@@H]1O[C@@H]1P(=O)(O)O [Fosfomycin, cis-1,2-epoxypropyl phosphonic acid]",MIC,[1],32 to 128 µg/mL
same,MIC (Combo as F/DP/SM; second compound as DP/SM),[2]; S. saprophyticus 1119421,32 µg/mL
same,MIC (Combo as F/DP/SM; second compound as DP/SM),[2]; S. saprophyticus 1124324,32 µg/mL
same,MIC (Combo as F/DP/SM; second compound as DP/SM),[2]; S. saprophyticus 1136894,64 µg/mL
same,MIC,[3],≤ 64 µg/mL
same,MIC (Combo as F/DP/SM; second compound as DP/SM),[4]; K. pneumonia 848788,256* μg/ml
same,MIC (Combo as F/DP/SM; second compound as DP/SM),[4]; K. pneumonia 857147,32 µg/mL
same,MIC (Combo as F/DP/SM; second compound as DP/SM),[4]; K. pneumonia 857187,128* μg/ml
same,MIC (Combo as F/DP/SM; second compound as DP/SM),[4]; K. pneumonia 868968,256* μg/ml
same,MIC (Combo as F/DP/SM; second compound as DP/SM),[4]; K. pneumonia 868972,128* μg/ml
same,MIC (Combo as F/DP/SM; second compound as DP/SM),[4]; K. pneumonia 869028,256* μg/ml
same,MIC (Combo as F/DP/SM; second compound as DP/SM),[4]; K. pneumonia 870964,256* μg/ml
same,MIC (Combo as F/DP/SM; second compound as DP/SM),[4]; K. pneumonia 875638,64 µg/mL
same,MIC (Combo as F/DP/SM; second compound as DP/SM),[4]; K. pneumonia 892483,256* μg/ml
same,MIC (Combo as F/DP/SM; second compound as DP/SM),[4]; K. pneumonia 926439,128* μg/ml
same,MIC (Combo as F/DP/SM; second compound as DP/SM),[5]; P. aeruginosa 826882,128* μg/ml
same,MIC (Combo as F/DP/SM; second compound as DP/SM),[5]; P. aeruginosa 880238,128* μg/ml
same,MIC (Combo as F/DP/SM; second compound as DP/SM),[5]; P. aeruginosa 889058,128* μg/ml
same,MIC (Combo as F/DP/SM; second compound as DP/SM),[5]; P. aeruginosa 906939,128* μg/ml
same,MIC (Combo as F/DP/SM; second compound as DP/SM),[5]; P. aeruginosa 914881,128* μg/ml
same,MIC (Combo as F/DP/SM; second compound as DP/SM),[5]; P. aeruginosa 924190,256* μg/ml
same,MIC (Combo as F/DP/SM; second compound as DP/SM),[5]; P. aeruginosa 926474,64 µg/mL
same,MIC (Combo as F/DP/SM; second compound as DP/SM),[5]; P. aeruginosa 945543,128* μg/ml
same,MIC (Combo as F/DP/SM; second compound as DP/SM),[5]; P. aeruginosa 945545,128* μg/ml
same,MIC (Combo as F/DP/SM; second compound as DP/SM),[5]; P. aeruginosa 945748,128* μg/ml
same,MIC (Combo as F/DP/SM; second compound as DP/SM),[5]; P. aeruginosa PAO1,32 µg/mL
same,MIC (Combo as F/DP/SM; second compound as DP/SM),[6]; Escherichia coli 846439,64 µg/mL
same,MIC (Combo as F/DP/SM; second compound as DP/SM),[6]; Escherichia coli 846446,4 µg/mL
same,MIC (Combo as F/DP/SM; second compound as DP/SM),[6]; Escherichia coli 846450,32 µg/mL
same,MIC (Combo as F/DP/SM; second compound as DP/SM),[6]; Escherichia coli 846455,128* μg/ml
same,MIC (Combo as F/DP/SM; second compound as DP/SM),[6]; Escherichia coli 847149,128* μg/ml
same,MIC (Combo as F/DP/SM; second compound as DP/SM),[6]; Escherichia coli 854535,128* μg/ml
same,MIC (Combo as F/DP/SM; second compound as DP/SM),[6]; Escherichia coli 854566,128* μg/ml
same,MIC (Combo as F/DP/SM; second compound as DP/SM),[6]; Escherichia coli 857021,64 µg/mL
same,MIC (Combo as F/DP/SM; second compound as DP/SM),[6]; Escherichia coli 863078,128* μg/ml
same,MIC (Combo as F/DP/SM; second compound as DP/SM),[6]; Escherichia coli 863686,64 µg/mL
same,MIC (Combo as F/DP/SM; second compound as DP/SM),[6]; Escherichia coli ATCC 25922,16 µg/mL
same,MIC (Combo as F/DP/SM; second compound as DP/SM),[7]; N. gonorrhoeae 127781,16 µg/mL
same,MIC (Combo as F/DP/SM; second compound as DP/SM),[7]; N. gonorrhoeae 127782,16 µg/mL
same,MIC (Combo as F/DP/SM; second compound as DP/SM),[7]; N. gonorrhoeae 127783,16 µg/mL
same,MIC (Combo as F/DP/SM; second compound as DP/SM),[7]; N. gonorrhoeae 127786,16 µg/mL
same,MIC (Combo as F/DP/SM; second compound as DP/SM),[7]; N. gonorrhoeae 1117522,16 µg/mL
same,MIC (Combo as F/DP/SM; second compound as DP/SM),[7]; N. gonorrhoeae 1117523,16 µg/mL
same,MIC (Combo as F/DP/SM; second compound as DP/SM),[7]; N. gonorrhoeae 1117524,8 µg/mL
same,MIC (Combo as F/DP/SM; second compound as DP/SM),[7]; N. gonorrhoeae 1117525,8 µg/mL
same,MIC (Combo as F/DP/SM; second compound as DP/SM),[7]; N. gonorrhoeae 1117527,8 µg/mL
same,MIC (Combo as F/DP/SM; second compound as DP/SM),[8]; P. mirabilis 1071120,1 µg/mL
same,MIC (Combo as F/DP/SM; second compound as DP/SM),[8]; P. mirabilis 1124256,64 µg/mL
same,MIC (Combo as F/DP/SM; second compound as DP/SM),[8]; P. mirabilis 1128681,4 µg/mL
same,MIC (Combo as F/DP/SM; second compound as DP/SM),[8]; P. mirabilis 1184042,4 µg/mL
